In patent US20050009840A1 (SUGEN, INC., priority 2003, published 2005):
Several values for one entry are separate records, joined by “and”; a condition that tells them apart may be missing. Identical values can stand only once.

biological target: T1, Met kinase domain (GST fusion protein) (Homo sapiens, UniProt P08581); assay: Met transphosphorylation assay (ELISA, poly(glu-tyr) substrate); type: biochemical; details: read-out: Met IC50;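 note: Cell-free ELISA with plate-bound poly(Glu:Tyr 4:1) phosphorylated by GST-fused Met kinase domain plus ATP and Mn2+, phosphotyrosine detected by anti-phosphotyrosine antibody with HRP and ABTS read-out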
T1 construct: Purified GST fusion protein containing the Met kinase domain
T1 sequence (P08581 1078-1345 limits assumed): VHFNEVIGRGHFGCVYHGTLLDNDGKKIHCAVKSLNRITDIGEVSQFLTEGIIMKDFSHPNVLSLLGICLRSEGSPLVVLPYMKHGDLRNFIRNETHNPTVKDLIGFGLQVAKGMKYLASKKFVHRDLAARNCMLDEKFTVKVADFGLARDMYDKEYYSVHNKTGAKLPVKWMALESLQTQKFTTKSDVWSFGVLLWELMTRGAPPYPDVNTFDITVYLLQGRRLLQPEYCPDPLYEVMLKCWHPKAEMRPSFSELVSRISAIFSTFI

Question: With `Nc1ncc(Br)cc1OCc1ccccc1Br` [I(d), 5-Bromo-3-(2-bromo-benzyloxy)-pyridin-2-ylamine] as the compound, how does the IC50 read?
Answer: Its IC50 is over 20000 nM.

Question: How did the IC50 turn out when `Nc1ncc(Br)cc1OCc1c(F)cccc1Cl` [I(e), 5-Bromo-3-(2-chloro-6-fluoro-benzyloxy)-pyridin-2-ylamine] was run?
Answer: The IC50 was 20000 nM.

Question: How did the IC50 turn out when `Nc1ncc(Br)cc1OCc1c(F)ccc(F)c1Cl` [I(l), 5-Bromo-3-(2-chloro-3.6-difluoro-benzyloxy)-pyridin-2-ylamine] was run?
Answer: The IC50 was 5300 nM.

Question: Which IC50 does the source give for `Nc1ncc(Br)nc1OCc1c(Cl)cccc1Cl` [II(a), 5-Bromo-3-(2,6-dichloro-benzyloxy)-pyrazin-2-ylamine] here?
Answer: The IC50 was over 20000 nM.

Question: `Nc1ncc(Br)nc1OCc1c(F)ccc(F)c1Cl` [II(b), 5-Bromo-3-(2-chloro-3,6-difluoro-benzyloxy)-pyrazin-2-ylamine] was tested. Which IC50 did it give?
Answer: The IC50 was over 20000 nM.

Question: With `CC(Oc1nc(Br)cnc1N)c1c(F)ccc(F)c1Cl` (stereo not drawn) [II(c), 5-Bromo-3-[1-(2-chloro-3,6-difluoro-phenyl)-ethoxy]-pyrazin-2-ylamine] as the compound, how does the IC50 read?
Answer: Its IC50 is 1810 nM and 2670 nM.

Question: How did the IC50 turn out when `CC(C)C(Oc1nc(Br)cnc1N)c1c(F)ccc(F)c1Cl` (stereo not drawn) [II(d), 5-Bromo-3-[1-(2-chloro-3,6-difluoro-phenyl)-2-methyl-propoxy]-pyrazin-2-ylamine] was run?
Answer: The IC50 was 18100 nM.

Question: `CC(Oc1nc(Br)cnc1N)c1c(Cl)ccc(F)c1Cl` (stereo not drawn) [II(e), 5-Bromo-3-[1-(2,6-dichloro-3-fluoro-phenyl)-ethoxy]-pyrazin-2-ylamine] was tested. Which IC50 did it give?
Answer: The IC50 was 240 nM and 660 nM and 1300 nM.

Question: How did the IC50 turn out when `Nc1ncc(-c2ccc(O)cc2)nc1OCc1c(Cl)cccc1Cl` [II-1, 4-[5-Amino-6-(2,6-dichloro-benzyloxy)-pyrazin-2-yl]-phenol] was run?
Answer: The IC50 was 1350 nM.

Question: `Nc1ncc(-c2ccc(N3CCCS3(=O)=O)cc2)nc1OCc1c(Cl)cccc1Cl` [II-2, 3-(2,6-Dichloro-benzyloxy)-5-[4-(1,1-dioxo-1λ^6-isothiazolidin-2-yl)-phenyl]-pyrazin-2-ylamine] was tested. Which IC50 did it give?
Answer: The IC50 was 825 nM.

Question: `Nc1ncc(-c2cccc(OCCN3CCOCC3)c2)nc1OCc1c(Cl)cccc1Cl` [II-3, 3-(2,6-Dichloro-benzyloxy)-5-[3-(2-morpholin-4-yl-ethoxy)-phenyl]-pyrazin-2-ylamine] was tested. Which IC50 did it give?
Answer: Its IC50 is 740 nM.

Question: For `Nc1ncc(-c2ccc(OCCN3CCOCC3)cc2)nc1OCc1c(Cl)cccc1Cl` [II-4, 3-(2,6-Dichloro-benzyloxy)-5-[4-(2-morpholin-4-yl-ethoxy)-phenyl]-pyrazin-2-ylamine], which IC50 is on record?
Answer: Its IC50 is 1250 nM.

Question: `Nc1ccc(-c2cnc(N)c(OCc3c(Cl)cccc3Cl)n2)cc1` [II-5, 5-(4-Amino-phenyl)-3-(2,6-dichloro-benzyloxy)-pyrazin-2-ylamine] was tested. Which IC50 did it give?
Answer: The IC50 was 940 nM.

Question: With `Nc1ncc(-c2ccc(C(=O)O)cc2)nc1OCc1c(Cl)cccc1Cl` [II-6, 4-[5-amino-6-(2,6-dichloro-benzyloxy)-pyrazin-2-yl]-benzoic acid] as the compound, how does the IC50 read?
Answer: Its IC50 is 1750 nM.

Question: How did the IC50 turn out when `Nc1ncc(-c2ccc(C(=O)N3CCC[C@@H]3CN3CCCC3)cc2)nc1OCc1c(Cl)cccc1Cl` [II-7, {4-[5-Amino-6-(2,6-dichloro-benzyloxy)-pyrazin-2-yl]-phenyl)[(2R)-2-pyrrolidin-1-ylmethyl-pyrrolidin-1-yl]-methanone] was run?
Answer: Its IC50 is 240 nM.

Question: For `Nc1ncc(-c2ccc(C(=O)N3CCC(N4CCCC4)CC3)cc2)nc1OCc1c(Cl)cccc1Cl` [II-8], which IC50 is on record?
Answer: Its IC50 is 560 nM.

Question: Which IC50 does the source give for `Nc1ncc(-c2ccc(NS(=O)(=O)CCN3CCOCC3)cc2)nc1OCc1c(F)ccc(F)c1Cl` [II-9, 2-Morpholin-4-yl-ethanesulfonic acid {4-[5-amino-6-(2-chloro-3,6-difluoro-benzyloxy)-pyrazin-2-yl]-phenyl}-amide] here?
Answer: The IC50 was 1260 nM.

Question: With `Nc1ncc(-c2ccc(NS(=O)(=O)CCN3CCCCC3)cc2)nc1OCc1c(F)ccc(F)c1Cl` [II-10, 2-Piperidin-1-yl-ethanesulfonic acid {4-[5-amino-6-(2-chloro-3,6-difluoro-benzyloxy)-pyrazin-2-yl]-phenyl}-amide] as the compound, how does the IC50 read?
Answer: The IC50 was 1200 nM.

Question: With `Nc1ncc(-c2ccc(NS(=O)(=O)CCN3CCC(O)CC3)cc2)nc1OCc1c(F)ccc(F)c1Cl` [II-11, 2-(4-Hydroxy-piperidin-1-yl)-ethanesulfonic acid {4-[5-amino-6-(2-chloro-3,6-difluoro-benzyloxy)-pyrazin-2-yl]-phenyl}-amide] as the compound, how does the IC50 read?
Answer: The IC50 was 650 nM.

Question: `Nc1ncc(-c2ccc(NS(=O)(=O)CCN3CCCC3)cc2)nc1OCc1c(F)ccc(F)c1Cl` [II-12, 2-Pyrrolidin-1-yl-ethanesulfonic acid {4-[5-amino-6-(2-chloro-3,6-difluoro-benzyloxy)-pyrazin-2-yl]-phenyl}-amide] was tested. Which IC50 did it give?
Answer: The IC50 was 580 nM.

Question: For `Nc1ncc(-c2ccc(NS(=O)(=O)CCN3CC[C@@H](O)C3)cc2)nc1OCc1c(F)ccc(F)c1Cl` [II-13, 2-[(3R)-3-Hydroxy-pyrrolidin-1-yl]-ethanesulfonic acid {4-[5-amino-6-(2-chloro-3,6-difluoro-benzyloxy)-pyrazin-2-yl]-phenyl}-amide], which IC50 is on record?
Answer: Its IC50 is 1590 nM.

Question: With `Nc1ncc(-c2ccc(NS(=O)(=O)CCN3CCC[C@H]3CO)cc2)nc1OCc1c(F)ccc(F)c1Cl` [II-14, 2-[(2S)-2-Hydroxymethyl-pyrrolidin-1-yl]-ethanesulfonic acid {4-[5-amino-6-(2-chloro-3,6-difluoro-benzyloxy)-pyrazin-2-yl]-phenyl}-amide] as the compound, how does the IC50 read?
Answer: Its IC50 is 1780 nM.

Question: How did the IC50 turn out when `Nc1ncc(-c2ccc(NS(=O)(=O)CCNCC3CC3)cc2)nc1OCc1c(F)ccc(F)c1Cl` [II-15, 2-(Cyclopropylmethyl-amino)-ethanesulfonic acid {4-[5-amino-6-(2-chloro-3,6-difluoro-benzyloxy)-pyrazin-2-yl]-phenyl}-amide] was run?
Answer: Its IC50 is 1280 nM.

Question: How did the IC50 turn out when `CN(C)CCS(=O)(=O)Nc1ccc(-c2cnc(N)c(OCc3c(F)ccc(F)c3Cl)n2)cc1` [II-16, 2-Dimethylamino-ethanesulfonic acid {4-[5-amino-6-(2-chloro-3,6-difluoro-benzyloxy)-pyrazin-2-yl]-phenyl}-amide] was run?
Answer: The IC50 was 910 nM.

Question: Which IC50 does the source give for `CC(=O)N1CCN(CCS(=O)(=O)Nc2ccc(-c3cnc(N)c(OCc4c(F)ccc(F)c4Cl)n3)cc2)CC1` [II-18, 2-(4-Acetyl-piperazin-1-yl)-ethanesulfonic acid {4-[5-amino-6-(2-chloro-3,6-difluoro-benzyloxy)-pyrazin-2-yl]-phenyl}-amide] here?
Answer: The IC50 was 1500 nM.

Question: Which IC50 does the source give for `Nc1ncc(-c2ccc(NS(=O)(=O)CCNC3CC3)cc2)nc1OCc1c(F)ccc(F)c1Cl` [II-20, 2-Cyclopropylamino-ethanesulfonic acid {4-[5-amino-6-(2-chloro-3,6-difluoro-benzyloxy)-pyrazin-2-yl]-phenyl}-amide] here?
Answer: The IC50 was 1290 nM.

Question: With `Nc1ncc(-c2cccc(NS(=O)(=O)CCN3CCC(O)CC3)c2)nc1OCc1c(F)ccc(F)c1Cl` [II-22, 2-(4-Hydroxy-piperidin-1-yl)-ethanesulfonic acid {3-[5-amino-6-(2-chloro-3,6-difluoro-benzyloxy)-pyrazin-2-yl]-phenyl}-amide] as the compound, how does the IC50 read?
Answer: The IC50 was 700 nM.

Question: `CC(=O)N1CCN(CCS(=O)(=O)Nc2cccc(-c3cnc(N)c(OCc4c(F)ccc(F)c4Cl)n3)c2)CC1` [II-23, 2-(4-Acetyl-piperazin-1-yl)-ethanesulfonic acid {3-[5-amino-6-(2-chloro-3,6-difluoro-benzyloxy)-pyrazin-2-yl]-phenyl]-amide] was tested. Which IC50 did it give?
Answer: The IC50 was 2790 nM.

Question: `Nc1ncc(-c2cccc(NS(=O)(=O)CCN3CCCCC3)c2)nc1OCc1c(F)ccc(F)c1Cl` [II-24, 2-Piperidin-1-yl-ethanesulfonic acid {3-[5-amino-6-(2-chloro-3,6-difluoro-benzyloxy)-pyrazin-2-yl]-phenyl}-amide] was tested. Which IC50 did it give?
Answer: Its IC50 is 3500 nM.

Question: How did the IC50 turn out when `CCN(CC)CCS(=O)(=O)Nc1cccc(-c2cnc(N)c(OCc3c(F)ccc(F)c3Cl)n2)c1` [II-25, 2-Diethylamino-ethanesulfonic acid {3-[5-amino-6-(2-chloro-3,6-difluoro-benzyloxy)-pyrazin-2-yl]-phenyl}-amide] was run?
Answer: Its IC50 is 3700 nM.

Question: With `Nc1ncc(-c2cccc(NS(=O)(=O)CCN3CCOCC3)c2)nc1OCc1c(F)ccc(F)c1Cl` [II-26, 2-Morpholin-4-yl-ethanesulfonic acid {3-[5-amino-6-(2-chloro-3,6-difluoro-benzyloxy)-pyrazin-2-yl]-phenyl}-amide] as the compound, how does the IC50 read?
Answer: The IC50 was 3300 nM.

Question: Which IC50 does the source give for `Nc1ncc(-c2cccc(NS(=O)(=O)CCN3CCCC3)c2)nc1OCc1c(F)ccc(F)c1Cl` [II-27, 2-Pyrrolidin-1-yl-ethanesulfonic acid {3-[5-amino-6-(2-chloro-3,6-difluoro-benzyloxy)-pyrazin-2-yl]-phenyl}-amide] here?
Answer: The IC50 was 1800 nM.

Question: How did the IC50 turn out when `CN(C)CCS(=O)(=O)Nc1cccc(-c2cnc(N)c(OCc3c(F)ccc(F)c3Cl)n2)c1` [II-28, 2-Dimethylamino-ethanesulfonic acid {3-[5-amino-6-(2-chloro-3,6-difluoro-benzyloxy)-pyrazin-2-yl]-phenyl}-amide] was run?
Answer: Its IC50 is 2280 nM.

Question: How did the IC50 turn out when `Nc1ncc(-c2cccc(NS(=O)(=O)CCN3CCN(C(=O)CO)CC3)c2)nc1OCc1c(F)ccc(F)c1Cl` [II-29] was run?
Answer: The IC50 was 1820 nM.

Question: Which IC50 does the source give for `Nc1ncc(-c2cccc(NS(=O)(=O)CCNCC3CC3)c2)nc1OCc1c(F)ccc(F)c1Cl` [II-30, 2-(Cyclopropylmethyl-amino)-ethanesulfonic acid {3-[5-amino-6-(2-chloro-3,6-difluoro-benzyloxy)-pyrazin-2-yl]-phenyl}-amide] here?
Answer: The IC50 was 1840 nM.

Question: How did the IC50 turn out when `Nc1ncc(-c2cccc(NS(=O)(=O)CCN3CC[C@@H](O)C3)c2)nc1OCc1c(F)ccc(F)c1Cl` [II-31, 2-[(3R)-3-Hydroxy-pyrrolidin-1-yl]-ethanesulfonic acid {3-[5-amino-6-(2-chloro-3,6-difluoro-benzyloxy)-pyrazin-2-yl]-phenyl}-amide] was run?
Answer: The IC50 was 2160 nM.

Question: How did the IC50 turn out when `Nc1ncc(-c2cccc(NS(=O)(=O)CCNC3CC3)c2)nc1OCc1c(F)ccc(F)c1Cl` [II-32, 2-Cyclopropylamino-ethanesulfonic acid {3-[5-amino-6-(2-chloro-3,6-difluoro-benzyloxy)-pyrazin-2-yl]-phenyl}-amide] was run?
Answer: Its IC50 is 2130 nM.

Question: For `Nc1ncc(-c2ccc(C(=O)N3CCC[C@@H]3CN3CCCC3)cc2)nc1OCc1c(F)ccc(F)c1Cl` [II-34, {4-[5-Amino-6-(2-chloro-3,6-difluoro-benzyloxy)-pyrazin-2-yl]-phenyl)-[(2R)-2-pyrrolidin-1-ylmethyl-pyrrolidin-1-yl]-methanone], which IC50 is on record?
Answer: The IC50 was 150 nM.

Question: For `Nc1ncc(-c2ccc(C(=O)NCCN3CCCC3)cc2)nc1OCc1c(F)ccc(F)c1Cl` [II-35, 4-[5-Amino-6-(2-chloro-3,6-difluoro-benzyloxy)-pyrazin-2-yl]-N-(2-pyrrolidin-1-yl-ethyl)-benzamide], which IC50 is on record?
Answer: The IC50 was 130 nM.
